Earlier results, collected in patent US20230190754A1, “Therapeutic combinations for the treatment of Progressive Fibrosing interstitial lung diseases” (Boehringer Ingelheim International GmbH, priority 2021, published 2023).

Test system: PDE4 subtypes, A-D
Conditions: cited from earlier work

Row | SMILES | Preferential enzymatic inhibition among the PDE4 subtypes (in words)
1 | O=C(Nc1c(Cl)cncc1Cl)c1ccc(OC(F)F)c(OCC2CC2)c1 [roflumilast] | None of these show any preferential enzymatic inhibition
2 | N#Cc1ccc(Oc2ccc3c(c2)COB3O)cc1 [crisaborole] | None of these show any preferential enzymatic inhibition
3 | CCOc1cc([C@@H](CS(C)(=O)=O)N2C(=O)c3cccc(NC(C)=O)c3C2=O)ccc1OC [apremilast] | None of these show any preferential enzymatic inhibition
